Laboratory results reported in patent publication US20180186742A1, “PICOLINAMIDES AS FUNGICIDES” (Dow AgroSciences LLC, priority 2017, published 2018).
Where two headings read alike, the source gives them in different places.

Key:
[1] = tested on: Zymoseptoria tritici; test: Leaf blotch of wheat (SEPTTR), disease control on wheat seedlings; assay type: in vivo; conditions: for pest or weed control at 121.5 g/ha: low volume application at 121.5 g/H; for pest or weed control at 100 ppm: high volume application at 100 ppm
Procedure: Technical grades of materials were dissolved in acetone, which were then mixed with nine volumes of water containing 110 ppm Triton X-100. The fungicide solutions were applied onto wheat seedlings using an automated booth sprayer to run-off. All sprayed plants were allowed to air dry prior to further handling. All fungicides were evaluated using the aforementioned method for their activity vs. all target diseases, unless stated otherwise. Wheat leaf blotch and brown rust activity were also evaluated using track spray applications, in which case the fungicides were formulated as EC formulations, containing 0.1% Trycol 5941 in the spray solutions. Wheat plants (variety Yuma) were grown from seed in a greenhouse in 50% mineral soil/50% soil-less Metro mix until the first leaf was fully emerged, with 7-10 seedlings per pot. These plants were inoculated with an aqueous spore suspension of Zymoseptoria tritici either prior to or after fungicide treatments. After inoculation the plants were kept in 100% relative humidity (one day in a dark dew chamber followed by two to three days in a lighted dew chamber at 20° C.) to permit spores to germinate and infect the leaf. The plants were then transferred to a greenhouse set at 20° C. for disease to develop. When disease symptoms were fully expressed on the 1st leaves of untreated plants, infection levels were assessed on a scale of 0 to 100 percent disease severity. Percent disease control was calculated using the ratio of disease severity on treated plants relative to untreated plants.

[2] = tested on: Puccinia triticina; test: Wheat brown rust (PUCCRT), disease control on wheat seedlings; assay type: in vivo; conditions: for pest or weed control at 121.5 g/ha: low volume application at 121.5 g/H; for pest or weed control at 100 ppm: high volume application at 100 ppm
Procedure: Technical grades of materials were dissolved in acetone, which were then mixed with nine volumes of water containing 110 ppm Triton X-100. The fungicide solutions were applied onto wheat seedlings using an automated booth sprayer to run-off. All sprayed plants were allowed to air dry prior to further handling. All fungicides were evaluated using the aforementioned method for their activity vs. all target diseases, unless stated otherwise. Wheat leaf blotch and brown rust activity were also evaluated using track spray applications, in which case the fungicides were formulated as EC formulations, containing 0.1% Trycol 5941 in the spray solutions. Wheat plants (variety Yuma) were grown from seed in a greenhouse in 50% mineral soil/50% soil-less Metro mix until the first leaf was fully emerged, with 7-10 seedlings per pot. These plants were inoculated with an aqueous spore suspension of Puccinia triticina either prior to or after fungicide treatments. After inoculation the plants were kept in a dark dew room at 22° C. with 100% relative humidity overnight to permit spores to germinate and infect the leaf. The plants were then transferred to a greenhouse set at 24° C. for disease to develop. Fungicide formulation, application and disease assessment followed the procedures as described in the Example A.

[3] = 24 h, 1 Day Protectant, read-out: SEPTTR disease control, 1DP, LV activity
[4] = 24 h, 1 Day Protectant, read-out: PUCCRT disease control, 1DP, LV activity
[5] = 72 h, 3 Day Curative, read-out: PUCCRT disease control, 3DC, LV activity
[6] = 24 h, 1 Day Protectant, read-out: SEPTTR disease control, 1DP, HV activity
[7] = 72 h, 3 Day Curative, read-out: SEPTTR disease control, 3DC, HV activity
[8] = 24 h, 1 Day Protectant, read-out: PUCCRT disease control, 1DP, HV activity
[9] = 72 h, 3 Day Curative, read-out: PUCCRT disease control, 3DC, HV activity
[10] = 72 h, 3 Day Curative, read-out: SEPTTR disease control, 3DC, LV activity

SMILES	pest or weed control at 121.5 g/ha [1, 3]	pest or weed control at 121.5 g/ha [2, 4]	pest or weed control at 121.5 g/ha [2, 5]	pest or weed control at 100 ppm [1, 6]	pest or weed control at 100 ppm [1, 7]	pest or weed control at 100 ppm [2, 8]	pest or weed control at 100 ppm [2, 9]	also measured
COc1ccnc(C(=O)N[C@@H](C)C(=O)O[C@@H](C)[C@H](c2ccc(F)c(C)c2)C(C)C)c1OCOC(C)=O [Compound 256]	> 80%	> 80%	> 80%					
COc1cc(F)ccc1[C@@H](C1CCCC1)[C@H](C)OC(=O)[C@H](C)NC(=O)c1nccc(OC)c1O [Compound 140]				< 0%	< 80%	> 80%	> 80%	
COc1ccc([C@H](C(C)C)[C@H](C)OC(=O)[C@H](C)NC(=O)c2nccc(OC)c2OC(C)=O)c(F)c1 [Compound 251]	< 80%	> 80%	> 80%					
COc1ccnc(C(=O)N[C@@H](C)C(=O)O[C@@H](C)[C@@H](c2ccccc2)C(C)C)c1O [Compound 105]				< 80%	< 80%	> 80%	< 0%	
COc1ccnc(C(=O)N[C@@H](C)C(=O)O[C@@H](C)[C@H](c2c(F)cccc2Cl)C(C)C)c1OC(C)=O [Compound 390]								pest or weed control at 121.5 g/ha ([1]; 24 h, 1 Day Protectant, wheat leaf blotch, read-out: SEPTTR 1DP disease control, LV activity): > 80%; pest or weed control at 121.5 g/ha ([1]; 72 h, 3 Day Curative, wheat leaf blotch, read-out: SEPTTR 3DC disease control, LV activity): > 80%; pest or weed control at 121.5 g/ha ([2]; 24 h, 1 Day Protectant, wheat brown rust, read-out: PUCCRT 1DP disease control, LV activity): > 80%; pest or weed control at 121.5 g/ha ([2]; 72 h, 3 Day Curative, wheat brown rust, read-out: PUCCRT 3DC disease control, LV activity): > 80%
CCC(CC)[C@H](c1ccc(F)cc1C)[C@H](C)OC(=O)[C@H](C)NC(=O)c1nccc(OC)c1O [Compound 117]				> 80%	> 80%	> 80%	< 0%	
CCC(CC)[C@@H](c1ccccc1)C(C)OC(=O)[C@H](C)NC(=O)c1nccc(OC)c1OC(C)=O (stereo partly shown) [Compound 172]	> 80%	> 80%	> 80%					pest or weed control at 121.5 g/ha [1, 10]: > 80%
COc1ccnc(C(=O)N[C@@H](C)C(=O)O[C@@H](C)[C@H](c2ccc(C)cc2F)C(C)C)c1O [Compound 329]				< 80%	< 80%	> 80%	> 80%	
COc1ccnc(C(=O)N[C@@H](C)C(=O)O[C@@H](C)[C@H](c2ccccc2)C(C)C)c1OC(C)=O [Compound 165]	> 80%	> 80%	> 80%					pest or weed control at 121.5 g/ha [1, 10]: > 80%
COc1ccnc(C(=O)N[C@@H](C)C(=O)O[C@@H](C)[C@H](c2ccc(C)cc2)C2CC2)c1OC(C)=O [Compound 166]	< 80%	> 80%	> 80%					pest or weed control at 121.5 g/ha [1, 10]: > 80%
COCCC(=O)Oc1c(OC)ccnc1C(=O)N[C@@H](C)C(=O)O[C@@H](C)[C@H](c1ccc(OC)c(F)c1)C(C)C [Compound 248]	< 80%	< 80%	< 80%					
COc1ccnc(C(=O)NCC(=O)O[C@@H](C)[C@H](c2ccc(F)cc2C)C(C)C)c1O [Compound 317]				< 80%	< 80%	> 80%	> 80%	
COc1cc(F)ccc1[C@H](C1CCC1)[C@H](C)OC(=O)[C@H](C)NC(=O)c1nccc(OC)c1O [Compound 147]				< 0%	< 80%	> 80%	> 80%	
COc1ccc([C@H](C(C)C)[C@H](C)OC(=O)[C@H](C)NC(=O)c2nccc(OC)c2O)cc1 [Compound 338]				< 80%	< 80%	> 80%	> 80%	
COc1ccnc(C(=O)N[C@@H](C)C(=O)O[C@@H](C)[C@H](c2c(F)cc(F)cc2F)C(C)C)c1O [Compound 341]				> 80%	> 80%	> 80%	> 80%	
COc1ccnc(C(=O)N[C@@H](C)C(=O)O[C@@H](C)[C@H](c2ccc(C)cc2)C2CC2)c1OCOC(C)=O [Compound 167]	> 80%	> 80%	> 80%					pest or weed control at 121.5 g/ha [1, 10]: > 80%
COc1ccnc(C(=O)N[C@@H](C)C(=O)O[C@@H](C)[C@@H](c2ccc(F)cc2F)C(C)C)c1O [Compound 331]				< 80%	< 80%	< 80%	< 80%	
COc1ccnc(C(=O)N[C@@H](C)C(=O)O[C@@H](C)[C@@H](c2ccc(C)cc2C)C2CCCC2)c1O [Compound 132]				> 80%	< 80%	> 80%	> 80%	
COc1ccnc(C(=S)N[C@@H](C)C(=O)O[C@@H](C)[C@@H](c2ccccc2)C2CCCC2)c1O [Compound 115]				< 80%	< 0%	< 0%	< 0%	
COc1cc(F)ccc1[C@H](C1CCCC1)[C@H](C)OC(=O)[C@H](C)NC(=O)c1nccc(OC)c1O [Compound 144]				< 80%	> 80%	> 80%	> 80%	
COc1ccnc(C(=O)N[C@@H](C)C(=O)O[C@@H](C)[C@@H](c2ccc(Cl)cc2Cl)C(C)C)c1O [Compound 333]				< 80%	< 80%	> 80%	< 80%	
COc1ccnc(C(=O)N[C@@H](C)C(=O)O[C@@H](C)[C@H](c2ccc(F)cc2)C2CC2)c1OCOC(C)=O [Compound 171]	> 80%	> 80%	> 80%					pest or weed control at 121.5 g/ha [1, 10]: > 80%
COc1ccc([C@H](C(C)C)[C@H](C)OC(=O)[C@H](C)NC(=O)c2nccc(OC)c2OC(C)=O)c(C)c1 [Compound 254]	> 80%	> 80%	> 80%					
CCC(CC)[C@@H](c1ccccc1)C(C)OC(=O)[C@H](C)NC(=O)c1nccc(OC)c1OCOC(C)=O (stereo partly shown) [Compound 174]	> 80%	> 80%	> 80%					pest or weed control at 121.5 g/ha [1, 10]: > 80%
COc1ccnc(C(=O)N[C@@H](C)C(=O)O[C@@H](C)[C@@H](c2ccc(C)cc2F)C(C)C)c1O [Compound 332]				< 80%	< 80%	< 80%	< 80%	
COc1cc(C)ccc1[C@H](C(C)C)[C@H](C)OC(=O)[C@H](C)NC(=O)c1nccc(OC)c1OCOC(C)=O [Compound 259]	< 80%	> 80%	> 80%					
COCCC(=O)Oc1c(OC)ccnc1C(=O)N[C@@H](C)C(=O)O[C@@H](C)[C@H](c1ccc(C)cc1OC)C(C)C [Compound 249]	< 80%	> 80%	> 80%					
COc1ccnc(C(=O)N[C@@H](C)C(=O)O[C@@H](C)[C@H](c2ccc(C)cc2C)C(C)C)c1O [Compound 325]				> 80%	< 80%	> 80%	> 80%	
